test system: HL-60; assay: Dose inducing HL-60 cell adhesion related to skin tumor promotion.; format: functional, Homo sapiens

SMILES | ED50
C[C@H]1C(=O)N[C@H](CO)Cc2c[nH]c3cccc(c23)N1C (racemic) | 3.7e-06 M l-1
CN1c2cccc3[nH]cc(c23)C[C@@H](CO)NC(=O)[C@@H]1C(C)(C)C (racemic) | 1.1e-07 M l-1
CN1CC(=O)N[C@H](CO)Cc2c[nH]c3cccc1c23 (racemic) | 3.9e-05 M l-1

Source: ChEMBL document CHEMBL1126081, “Active conformation of a tumor promoter, teleocidin. A molecular dynamics study” (1992)
